The record followed here is patent US20240246941A1, “SUBSTITUTED 4-(3-AMINOPROP-1-YL)AMINOQUINOLINE ANALOGS AS MODULATORS OF MELANOMA-ASSOCIATED ANTIGEN 11 UBIQUITIN LIGASE” (ST. JUDE CHILDREN'S RESEARCH HOSPITAL, INC., priority 2020, published 2024).

The target in the first assay is interaction between GST-MAGEA11 MHD and FAM-PCF11_4 peptide (MAGE-A11:PCF11) (Homo sapiens (Human), UniProt P43364). The assay can be described thus: TR-FRET dose response competition assay for disruption of MAGE-A11:PCF11 binding. The following applies: Dose response TR-FRET screening of nine scaffold groups against MAGE-A11:PCF11; read-out: consensus IC50. Summed up: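 Competition TR-FRET at room temperature in 50 mM Tris pH 7.5, 20 mM MgCl2, 0.1 mg/ml BSA, 1 mM DTT: final 5 nM GST-MAGEA11 MHD, 5 nM Tb-anti-GST, 200 nM FAM-PCF11_4, 90 min. Ratio 520/490 nm converted to % inhibition; IC50 from sigmoidal fit.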
Sequence of interaction between GST-MAGEA11 MHD and FAM-PCF11_4 peptide (MAGE-A11:PCF11) (P43364 218-429): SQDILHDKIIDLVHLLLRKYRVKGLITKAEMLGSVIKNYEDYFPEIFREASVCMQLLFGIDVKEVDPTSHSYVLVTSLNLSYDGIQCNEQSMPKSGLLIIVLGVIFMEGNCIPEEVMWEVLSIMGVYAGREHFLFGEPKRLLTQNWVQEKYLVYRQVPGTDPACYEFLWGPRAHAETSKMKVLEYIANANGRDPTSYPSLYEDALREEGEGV
On the technique in general: Time-resolved FRET reads energy transfer from a long-lived donor to a nearby acceptor.
What is called IC50 is the point on the concentration scale where inhibition reaches its midpoint. On to `CC(=O)Nc1ccc(S(=O)(=O)N2CCN(C3=C(Cl)C(=O)c4ccccc4C3=O)CC2)cc1` [SJ000036320-1], for which the IC50 was 69.9 µM.

Take `CCc1ccc(-c2nc3c(c(=O)[nH]c(=O)n3CC(C)C)n2CCOC)cc1` [SJ000420343-1]: the IC50 came to 69.9 µM.

As to `COc1ccc(-c2nc(C#N)c(N3CCOCC3)o2)cc1` [SJ000051527-1], the IC50 was 69.9 µM. Still for that read-out and setting: with `FC(F)(F)c1ccc2c(NCCCNCc3ccc4c(c3)OCO4)ccnc2c1` [SJ000361106-1] the figure was 69.9 µM. For the compound `Cc1cc(-c2nc3c(c(=O)[nH]c(=O)n3C)n2C)ccc1Cl` [SJ000517919-1], the IC50 amounted to 69.9 µM. `COc1cccc(CNCCCNc2ccnc3cc(CCc4ccccc4)ccc23)c1O` [SJ000311255-1]: the IC50 came to 26.5 µM.

As to `COc1cccc(CNCCCNc2ccnc3cc(-c4cccc5ccccc45)ccc23)c1O` [SJ000311275-1], the IC50 worked out at 16 µM. In the case of `Nc1ccccc1CNCCCNc1ccnc2cc(Cl)ccc12` [SJ000523055-1], the IC50 was 69.9 µM. Take `COc1ccc(-c2cc3ncn(CC(=O)NCc4ccc(Cl)cc4)c(=O)c3s2)cc1` [SJ000457991-1]: the 50% inhibitory concentration (IC50) turned out to be 69.9 µM.

Regarding `COc1ccc(-c2cc3ncn(CC(=O)O)c(=O)c3s2)cc1` [SJ000397503-1], the IC50 worked out at 69.9 µM. `CCCN1C(=O)c2ccccc2NC1c1ccc(OC)c(COc2ccccc2F)c1` (stereo not shown) [SJ000295736-1]: the IC50 stood at 69.9 µM. For the compound `CCCn1c(-c2ccc(F)cc2)nc2c1c(=O)[nH]c(=O)n2Cc1ccccc1` [SJ000456724-1], the IC50 came to 69.9 µM. Turning to `CCCCCOc1ccc(NC2=C(N)C(=O)c3ccccc3C2=O)cc1` [SJ000032723-1], the IC50 came to 69.9 µM. Take `COc1ccc(F)cc1CNCCCNc1ccnc2cc(Cc3ccccc3)ccc12` [SJ000311309-1]: the IC50 is 18.3 µM. Take `C=C(C)CN(CC)C(=O)Cn1cnc2cc(-c3ccc(OC)cc3)sc2c1=O` [SJ000429044-1]: the IC50 came to 69.9 µM.

As for `Cc1cccc(CNCCCNc2ccnc3cc(Cl)ccc23)c1` [SJ000523066-1], the IC50 was found to be 69.9 µM.

On to `CCOC(=O)COc1ccc(-c2nc3c(=O)n(C)c(=O)n(C)c3[nH]2)cc1OC` [SJ000140137-1], for which the IC50 came to 69.9 µM. On to `COc1ccc(CNCCCNc2ccnc3cc(Cl)ccc23)cc1O` [SJ000311192-1], for which the IC50 was found to be 69.9 µM. With `CCCn1c(=O)[nH]c(=O)c2c1nc(-c1ccc(OC(F)F)c(OC)c1)n2CCOC` [SJ000459257-1], the IC50 turned out to be 69.9 µM. The same measure, in the same setting: with `COc1ccc(F)cc1CNCCCNc1ccnc2cc(-c3ccc(C(C)(C)C)cc3)ccc12` [SJ000311289-1] the figure was 4.62 µM.

Still in this assay, the particulars now being: Table 5, dose response TR-FRET screening of 59 quinoline compounds against MAGE-A11:PCF11; read-out: TR-FRET IC50.
Regarding `CCCN(CCCNc1ccnc2cc(C(F)(F)F)ccc12)CC1CCCCC1` [SJ000361268-1], the IC50 was above 70 µM. With `Clc1ccc2c(NCCCCN(Cc3ccccc3)CC3CCCCC3)ccnc2c1` [SJ000361194-2], the IC50 is above 70 µM. Turning to `CCCCCN(CCC)CCCNc1ccnc2cc(C(F)(F)F)ccc12` [SJ000361271-1], the IC50 was above 70 µM. `CCCN(CCCNc1ccnc2cc(Cl)ccc12)Cc1cc(C(F)(F)F)ccc1OC` [SJ000523012-1]: the IC50 is above 70 µM.

Still in this assay, the particulars now being: Table 8, representative compounds; read-out: TR-FRET IC50.
For `CN(C)c1cccc(Oc2ccc3c(NCCCNCc4cccc5c4OCO5)ccnc3c2)c1` [SJ000311232], the IC50 was determined as 69.9 µM. In the case of `Clc1ccc2c(NCCCNCc3c4ccccc4cc4ccccc34)ccnc2c1` [SJ000361122], the IC50 was 69.9 µM. Consider `Fc1cccc(C(F)(F)F)c1CNCCCNc1ccnc2cc(C(F)(F)F)ccc12` [SJ000521059], for which the IC50 stood at 69.9 µM. For `COc1cccc(Oc2ccc3c(NCCCNCc4cccc5c4OCO5)ccnc3c2)c1` [SJ000311216], the IC50 stood at 36.9 µM. Consider `COc1cccc(CNCCCNc2ccnc3cc(CCC(C)C)ccc23)c1O` [SJ000311247], for which the half-inhibitory concentration (IC50) amounted to 69.9 µM. Still for that read-out and setting: with `COc1cccc(CNCCCNc2ccnc3cc(Cc4c(Cl)cccc4Cl)ccc23)c1O` [SJ000311315] the figure was 13.8 µM; with `COc1ccc(F)cc1CNCCCNc1ccnc2cc(Cc3ccc(C#N)cc3)ccc12` [SJ000311305], 69.9 µM.
